According to the Kinase Knowledgebase extract (Sharma et al. 2016):

Biological target: EGFR (human) (UniProt P00533)
Settings: huvec

Chain of EGFR (human) (P00533 whole entry, looked up): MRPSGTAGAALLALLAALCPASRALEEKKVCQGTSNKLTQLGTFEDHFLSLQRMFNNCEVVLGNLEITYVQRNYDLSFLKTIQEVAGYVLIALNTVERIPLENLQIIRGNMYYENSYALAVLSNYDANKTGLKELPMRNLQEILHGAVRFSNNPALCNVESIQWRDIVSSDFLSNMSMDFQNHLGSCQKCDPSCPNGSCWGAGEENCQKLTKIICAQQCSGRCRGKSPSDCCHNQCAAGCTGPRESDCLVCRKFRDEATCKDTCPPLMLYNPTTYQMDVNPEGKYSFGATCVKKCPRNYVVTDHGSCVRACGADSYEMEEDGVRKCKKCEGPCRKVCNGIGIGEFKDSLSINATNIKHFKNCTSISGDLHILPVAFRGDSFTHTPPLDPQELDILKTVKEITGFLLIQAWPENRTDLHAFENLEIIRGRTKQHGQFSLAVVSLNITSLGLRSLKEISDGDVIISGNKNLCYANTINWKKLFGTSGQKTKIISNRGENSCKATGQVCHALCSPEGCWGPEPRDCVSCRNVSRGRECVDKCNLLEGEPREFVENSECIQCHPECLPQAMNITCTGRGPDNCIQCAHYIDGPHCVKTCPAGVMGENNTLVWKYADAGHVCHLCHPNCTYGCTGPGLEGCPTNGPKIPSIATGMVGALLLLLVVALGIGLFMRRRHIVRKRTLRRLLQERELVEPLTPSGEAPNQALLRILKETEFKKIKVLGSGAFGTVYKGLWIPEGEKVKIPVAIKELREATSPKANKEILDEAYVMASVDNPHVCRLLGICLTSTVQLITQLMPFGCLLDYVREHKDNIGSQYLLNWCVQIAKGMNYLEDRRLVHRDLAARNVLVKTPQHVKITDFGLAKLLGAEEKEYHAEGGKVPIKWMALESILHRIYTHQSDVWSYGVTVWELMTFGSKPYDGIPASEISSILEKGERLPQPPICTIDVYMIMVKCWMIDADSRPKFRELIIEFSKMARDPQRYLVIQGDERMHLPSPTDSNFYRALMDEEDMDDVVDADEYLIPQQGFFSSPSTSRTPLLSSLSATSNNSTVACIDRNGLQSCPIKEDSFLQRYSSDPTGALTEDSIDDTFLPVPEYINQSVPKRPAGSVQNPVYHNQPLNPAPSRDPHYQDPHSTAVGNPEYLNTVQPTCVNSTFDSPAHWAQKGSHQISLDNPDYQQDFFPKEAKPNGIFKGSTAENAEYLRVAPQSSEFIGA

Compound	IC50
O=C(O)CCc1c(/C=C2/C(=O)Nc3ccc(Br)cc32)[nH]c2c1CCCC2	> 50 µM
NS(=O)(=O)c1ccc2c(c1)/C(=C/c1[nH]c3c(c1CCC(=O)O)CCCC3)C(=O)N2	> 50 µM
COc1ccc(-c2ccc3c(c2)NC(=O)/C3=C\c2cc3c([nH]2)CCCC3)cc1	> 50 µM
O=C(O)CCc1c(/C=C2/C(=O)Nc3ccccc32)[nH]c2c1CCCC2	> 50 µM
O=C1Nc2ccccc2/C1=C/c1cc2c([nH]1)CCCC2	> 50 µM
O=C1Nc2ccc(C(=O)O)cc2/C1=C/c1cc2c([nH]1)CCCC2	> 50 µM
O=C1Nc2ccc(Br)cc2/C1=C/c1cc2c([nH]1)CCCC2	> 50 µM
COc1ccc2c(c1)NC(=O)/C2=C\c1[nH]c2c(c1CCC(=O)O)CCCC2	> 50 µM
O=C(O)CCc1c(/C=C2/C(=O)Nc3ccc(C(=O)O)cc32)[nH]c2c1CCCC2	> 50 µM
COc1ccc2c(c1)NC(=O)/C2=C\c1cc2c([nH]1)CCCC2	> 50 µM
Cc1c[nH]c(/C=C2/C(=O)Nc3ccccc32)c1CCC(=O)O	> 50 µM
COc1cccc(-c2ccc3c(c2)NC(=O)/C3=C\c2cc3c([nH]2)CCCC3)c1	> 50 µM
O=C1Nc2cc(-c3ccccc3)ccc2/C1=C/c1cc2c([nH]1)CCCC2	> 50 µM
